{
  "source": "patent EP3305290B1",
  "about": "“[…] […] FOR USE IN THE TREATMENT OF VIRAL INFECTIONS” (priority 2016, dated 2018)",
  "key": {"EBOV [1]": {"tested_on": "EBOV", "format": "cell-based, Zaire Ebola virus (EBOV) strain Mayinga"}, "EBOV [2]": {"tested_on": "EBOV", "format": "cell-based, Zaire Ebola virus (EBOV) strain Mayinga", "remark": "listed apart in the source"}, "[3]": {"tested_on": "EBOV proteins VP40, NP and GP", "format": "cell-based, Zaire Ebola virus (EBOV) strain Mayinga"}, "EBOV NP protein": {"tested_on": "EBOV NP protein", "format": "cell-based, Zaire Ebola virus (EBOV) strain Mayinga"}, "[4]": {"tested_on": "proto-oncogenic kinase PIM1", "assay": "Westernblot of PIM1 in primary macrophages", "format": "cell-based, human"}, "5'-UTRs of Ebola mRNAs": {"tested_on": "5'-UTRs of Ebola mRNAs", "assay": "cells", "format": "cell-based, EBOV", "conditions": "for inhibition at 0.01 µM: Zaire ebolavirus"}, "[5]": {"tested_on": "5'-UTRs of all seven EBOV mRNAs", "format": "cell-based"}, "5'-UTR from HCoV-229E": {"tested_on": "5'-UTR from HCoV-229E", "format": "cell-based"}, "5'-UTR from MERS-CoV": {"tested_on": "5'-UTR from MERS-CoV", "format": "cell-based"}, "MERS-CoV [6]": {"tested_on": "MERS-CoV", "assay": "microbe, parasite or virus in culture", "format": "cell-based, MERS-CoV (EMC/2012)"}, "HCoV-229E [7]": {"tested_on": "HCoV-229E", "assay": "microbe, parasite or virus in culture", "format": "cell-based, Human Coronavirus 229E (HCoV-229E)"}, "rhinovirus A1": {"tested_on": "rhinovirus A1", "assay": "organism not typed", "format": "cell-based, human Rhinovirus 1A (HRV1A)", "conditions": "for EC50: MRC5, 24 h"}, "poliovirus [8]": {"tested_on": "poliovirus", "assay": "microbe, parasite or virus in culture", "format": "cell-based, Poliovirus Typ 1 (strain Mahoney; PV)"}, "Rhinovirus 1A": {"tested_on": "Rhinovirus 1A", "assay": "microbe, parasite or virus in culture", "format": "cell-based, human Rhinovirus 1A (HRV1A)", "conditions": "for EC50: Enterovirus, HeLa"}, "HCoV-229E [9]": {"tested_on": "HCoV-229E", "assay": "microbe, parasite or virus in culture", "format": "cell-based, Human Coronavirus 229E (HCoV-229E)", "conditions": "Human coronavirus 229E"}, "poliovirus [10]": {"tested_on": "poliovirus", "assay": "microbe, parasite or virus in culture", "format": "cell-based, Poliovirus Typ 1 (strain Mahoney; PV)", "conditions": "Enterovirus C"}, "MERS-CoV [11]": {"tested_on": "MERS-CoV", "assay": "microbe, parasite or virus in culture", "format": "cell-based, MERS-CoV (EMC/2012)", "remark": "listed apart in the source"}, "Coronaviruses": {"tested_on": "Coronaviruses", "assay": "organism not typed", "format": "cell-based", "conditions": "MRC5, read-out: EC50-values"}, "viral dsRNA and nsp8": {"tested_on": "viral dsRNA and nsp8", "assay": "Immunofluorescence of replication/transcription complexes in HCoV-229E infected MRC-5 cells", "format": "cell-based", "conditions": "MOI 3, 12 h p.i."}, "[12]": {"tested_on": "HCoV-229E proteins N and nsp8", "assay": "Westernblot analysis, Method 2, HCoV-229E proteins N and nsp8", "format": "cell-based"}, "Huh-7 cells [13]": {"tested_on": "Huh-7 cells", "assay": "Cell morphology of Huh-7 cells by light microscopy", "format": "cell-based, human", "conditions": "10 nM, three days"}, "in vitro": {"assay": "in vitro", "conditions": "human"}, "[14]": {"assay": "Cell toxicity (MTT) in hAEC", "conditions": "human"}, "[15]": {"assay": "Cell toxicity (MTT) in PBMCs", "conditions": "human"}, "Huh-7 cells [16]": {"tested_on": "Huh-7 cells", "assay": "WST-1 proliferation assay of Huh-7 cells"}, "primary macrophages": {"tested_on": "primary macrophages", "assay": "WST-1 viability assay of primary macrophages"}},
  "note": "Entries after “also recorded” stand apart in the source; their conditions may differ. Where two headings read alike, the source gives them in different places.",
  "data": [
    {"smiles": "COC(=O)[C@H]1[C@@H](O)[C@@]2(O)c3c(OC)cc(O[C@@H]4O[C@@H]([C@H](O)CO)CO[C@H]4OC)cc3O[C@@]2(c2ccc(OC)cc2)[C@@H]1c1ccccc1", "note": "[Silvestrol]", "values": [
      {"measurement": "antiviral effect (EBOV titer)", "setting": "EBOV [1]", "value": "comparable antiviral effect"},
      {"measurement": "inhibition of EBOV infection (viral titers)", "setting": "EBOV [1]", "value": "substantially inhibits EBOV infection; also recorded: inhibits viral propagation efficiently; also recorded: strongly inhibits EBOV replication"},
      {"measurement": "reduction of viral titers", "setting": "EBOV [2]", "value": "up to two orders of magnitude"},
      {"measurement": "EBOV protein VP40 levels", "setting": "[3]", "value": "strong reduction of VP40 levels; also recorded: inhibits the expression"},
      {"measurement": "EBOV proteins NP and GP levels", "setting": "[3]", "value": "Downregulation"},
      {"measurement": "cellular protein tubulin level", "setting": "[3]", "value": "not affected"},
      {"measurement": "expression level of the EBOV NP protein", "setting": "EBOV NP protein", "value": "potent downregulation; also recorded: strongly decreased levels"},
      {"measurement": "PIM1 levels", "setting": "[4]; primary macrophages, 10 nM", "value": "strongly decreased levels"},
      {"measurement": "duration of inhibitory effect on PIM1 levels", "setting": "[4]; single dose 10 nM, macrophages", "value": "at least 5 days"},
      {"measurement": "cellular β-Actin levels", "setting": "[4]; single dose 10 nM, macrophages, up to 5 days", "value": "without affecting cellular β-Actin levels"},
      {"measurement": "effect on IRES-driven renilla luciferase activity", "setting": "5'-UTRs of Ebola mRNAs", "value": "no obvious effect"},
      {"measurement": "inhibition at 0.01 µM", "setting": "5'-UTRs of Ebola mRNAs; HepG2, read-out: inhibitory effect on firefly luciferase activity", "value": 80, "unit": "%"},
      {"measurement": "inhibition at 0.01 µM", "setting": "5'-UTRs of Ebola mRNAs; HepG2, read-out: inhibitory effect on luciferase levels", "value": 30, "unit": "%"},
      {"measurement": "inhibition of firefly luciferase activity", "setting": "[5]", "value": "23-33%"},
      {"measurement": "reduction of firefly luciferase activity", "setting": "[5]", "value": "no significant reduction"},
      {"measurement": "decrease of luciferase activity", "setting": "5'-UTR from HCoV-229E", "value": "~40", "unit": "%"},
      {"measurement": "decrease of luciferase activity", "setting": "5'-UTR from MERS-CoV", "value": "~40", "unit": "%"},
      {"measurement": "selectivity index (CC50/EC50)", "setting": "MERS-CoV [6]", "value": 1538},
      {"measurement": "EC50", "setting": "MERS-CoV [6]; Middle East respiratory syndrome-related coronavirus, MRC5, 24 h", "value": 1.3, "unit": "nM"},
      {"measurement": "EC50 fold lower in MRC-5 cells compared to infected Huh-7 cells", "setting": "HCoV-229E [7]", "value": "about 10 fold"},
      {"measurement": "selectivity index (CC50/EC50)", "setting": "HCoV-229E [7]", "value": 566},
      {"measurement": "EC50", "setting": "HCoV-229E [7]; Human coronavirus 229E, MRC5, 24 h", "value": 3, "unit": "nM"},
      {"measurement": "fold less sensitive compared to the analyzed coronaviruses", "setting": "rhinovirus A1", "value": "about 100 fold"},
      {"measurement": "EC50", "setting": "rhinovirus A1", "value": 100, "unit": "nM"},
      {"measurement": "EC50", "setting": "rhinovirus A1; Rhinovirus A", "value": 100, "unit": "nM"},
      {"measurement": "fold less sensitive / less efficient compared to MERS-CoV and HCoV-229E", "setting": "poliovirus [8]", "value": "about 10 fold"},
      {"measurement": "EC50", "setting": "poliovirus [8]; Enterovirus C, MRC5, 24 h", "value": 20, "unit": "nM"},
      {"measurement": "EC50 fold higher compared to HCoV-229E in Huh-7", "setting": "Rhinovirus 1A", "value": "about 10 fold"},
      {"measurement": "EC50", "setting": "Rhinovirus 1A", "value": 400, "unit": "nM"},
      {"measurement": "EC50", "setting": "Rhinovirus 1A; 24 h, read-out: effective dose (EC50)", "value": 400, "unit": "nM"},
      {"measurement": "EC50", "setting": "HCoV-229E [9]; Huh-7", "value": 40, "unit": "nM"},
      {"measurement": "EC50", "setting": "HCoV-229E [9]; Huh-7, 24 h, read-out: effective dose (EC50)", "value": 40, "unit": "nM"},
      {"measurement": "EC50", "setting": "poliovirus [10]; Vero C1008", "value": "~100", "unit": "nM"},
      {"measurement": "EC50", "setting": "poliovirus [10]; Vero C1008, 24 h, read-out: effective dose (EC50)", "value": 100, "unit": "nM"},
      {"measurement": "selectivity index", "setting": "MERS-CoV [11]", "value": 166},
      {"measurement": "EC50", "setting": "MERS-CoV [11]; Middle East respiratory syndrome-related coronavirus, Epithelial cell, 48 h", "value": 3, "unit": "nM"},
      {"measurement": "EC50", "setting": "Coronaviruses", "value": "1 to 3", "unit": "nM"},
      {"measurement": "levels of double-stranded viral RNA and nsp8 (RTC markers)", "setting": "viral dsRNA and nsp8; 10 nM", "value": "drop down"},
      {"measurement": "levels of double-stranded viral RNA and nsp8 (RTC markers)", "setting": "viral dsRNA and nsp8; 100 nM", "value": "nearly no viral dsRNA or nsp8 can be detected"},
      {"measurement": "level of N-protein", "setting": "[12]; HCoV-229E infected primary MRC-5 cells, 10 nM, 12 h and 48 h p.i.", "value": "disappears"},
      {"measurement": "HCoV-229E proteins N and nsp8", "setting": "[12]; Huh-7 infected cells, 10 nM", "value": "detectable"},
      {"measurement": "N-protein", "setting": "[12]; Huh-7 infected cells, 100 nM", "value": "only very low amounts"},
      {"measurement": "nsp8", "setting": "[12]; Huh-7 infected cells, 100 nM", "value": "completely absent"},
      {"measurement": "cell morphology", "setting": "Huh-7 cells [13]", "value": "without changing cell morphology"},
      {"measurement": "CC50", "setting": "in vitro; CC50", "value": 1700, "unit": "nM"},
      {"measurement": "CC50", "setting": "in vitro; CC50 / cell toxicity", "value": "> 1000", "unit": "nM"},
      {"measurement": "CC50 at 48 h", "setting": "[14]", "value": 500, "unit": "nM"},
      {"measurement": "CC50", "setting": "[15]", "value": 400, "unit": "nM"},
      {"measurement": "effect on proliferation of Huh-7 cells", "setting": "Huh-7 cells [16]; higher concentrations up to 100 nM, compared to DMSO control", "value": "weakly affected; also recorded: weak effects on proliferation"},
      {"measurement": "effect on proliferation of Huh-7 cells", "setting": "Huh-7 cells [16]; up to 10 nM Silvestrol, WST-1, 48 h", "value": "no obvious effects on proliferation; also recorded: No effect of Silvestrol on proliferation"},
      {"measurement": "IC50", "setting": "primary macrophages; Homo sapiens, Primary macrophage, 72 h, read-out: IC50 (WST-1 viability assay), primary macrophages, 0.1 nM - 10 µM, 72 h", "value": "~96", "unit": "nM"},
      {"measurement": "concentration with essentially no sign of toxicity", "setting": "primary macrophages; primary macrophages, WST-1", "value": "at least 50 nM"}
    ]}
  ]
}
